Measurements taken from PubChem BioAssay AID330 (DTP/NCI, 2004).
Where “and” joins values, the source holds several entries; their conditions need not be identical. Identical values can stand only once. Toxic doses and inconclusive results are not listed. Peptide text beside a SMILES is read from it.

System: P388 leukemia ip, CD2F1 mice, survival T/C
Assay: NCI In Vivo Anticancer Drug Screen. Data for tumor model P388 Leukemia (intraperitoneal) in CD2F1 (CDF1) mice
Details: endpoint: median survival time, higher = longer survival
Method in brief: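 Mice carrying the transplanted tumor received test compound or vehicle. Survival was recorded in each group, and the value is the treated-group measurement divided by that of the vehicle-treated control group.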

[1] = dose: 50.0 mg/kg/injection, schedule: Q01DX005 (ip), vehicle: saline with Tween-80
[2] = dose: 100.0 mg/kg/injection, schedule: Q01DX005 (ip), vehicle: saline with Tween-80
[3] = dose: 200.0 mg/kg/injection, schedule: Q01DX005 (ip), vehicle: saline with Tween-80
[4] = dose: 50.0 mg/kg/injection, schedule: Q01DX005 (ip), vehicle: Klucel (hydroxypropylcellulose) (HPC)
[5] = dose: 100.0 mg/kg/injection, schedule: Q01DX005 (ip), vehicle: Klucel (hydroxypropylcellulose) (HPC)
[6] = dose: 60.0 mg/kg/injection, schedule: Q01DX005 (ip), vehicle: saline with Tween-80
[7] = dose: 120.0 mg/kg/injection, schedule: Q01DX005 (ip), vehicle: saline with Tween-80
[8] = dose: 240.0 mg/kg/injection, schedule: Q01DX005 (ip), vehicle: saline with Tween-80
[9] = dose: 50.0 mg/kg/injection, schedule: Q01DX009 (ip), vehicle: Klucel (hydroxypropylcellulose) (HPC)
[10] = dose: 100.0 mg/kg/injection, schedule: Q01DX009 (ip), vehicle: Klucel (hydroxypropylcellulose) (HPC)
[11] = dose: 200.0 mg/kg/injection, schedule: Q01DX009 (ip), vehicle: Klucel (hydroxypropylcellulose) (HPC)
[12] = dose: 25.0 mg/kg/injection, schedule: Q01DX005 (ip), vehicle: saline with Tween-80
[13] = dose: 60.0 mg/kg/injection, schedule: Q01DX005 (ip), vehicle: Klucel (hydroxypropylcellulose) (HPC)
[14] = dose: 120.0 mg/kg/injection, schedule: Q01DX005 (ip), vehicle: Klucel (hydroxypropylcellulose) (HPC)
[15] = dose: 240.0 mg/kg/injection, schedule: Q01DX005 (ip), vehicle: Klucel (hydroxypropylcellulose) (HPC)
[16] = dose: 50.0 mg/kg/injection, schedule: Q01DX009 (ip), vehicle: saline with Tween-80
[17] = dose: 100.0 mg/kg/injection, schedule: Q01DX009 (ip), vehicle: saline with Tween-80
[18] = dose: 200.0 mg/kg/injection, schedule: Q01DX009 (ip), vehicle: saline with Tween-80
[19] = dose: 100.0 mg/kg/injection, schedule: Q01DX005 (ip), vehicle: saline
[20] = dose: 200.0 mg/kg/injection, schedule: Q01DX005 (ip), vehicle: saline
[21] = dose: 50.0 mg/kg/injection, schedule: Q01DX009 (ip), vehicle: saline
[22] = dose: 100.0 mg/kg/injection, schedule: Q01DX009 (ip), vehicle: saline
[23] = dose: 50.0 mg/kg/injection, schedule: Q01DX005 (ip), vehicle: saline

For COC1=C(Br)C(O)C2(C=C1Br)CC(C(=O)NCC(O)COc1c(Br)cc(C(O)CNC(=O)C3=NOC4(C=C(Br)C(OC)=C(Br)C4O)C3)cc1Br)=NO2 (configuration not stated), the T/C (dose: 25.0 mg/kg/injection, schedule: Q01DX009 (ip), vehicle: saline + Tween-80 + alcohol) was 110 % of control, the T/C (dose: 50.0 mg/kg/injection, schedule: Q01DX009 (ip), vehicle: saline + Tween-80 + alcohol) was 112 % of control and 92 % of control and the T/C (dose: 100.0 mg/kg/injection, schedule: Q01DX009 (ip), vehicle: saline + Tween-80 + alcohol) was 112 % of control and 92 % of control. For the same molecule, the T/C (dose: 200.0 mg/kg/injection, schedule: Q01DX009 (ip), vehicle: saline + Tween-80 + alcohol) was 102 % of control.

With O=S(=O)(O)CC(O)CN(CCO)CCO (configuration not stated) the T/C (dose: 60.0 mg/kg/injection, schedule: Q01DX005 (ip), vehicle: saline) was 108 % of control, the T/C (dose: 120.0 mg/kg/injection, schedule: Q01DX005 (ip), vehicle: saline) was 102 % of control and the T/C (dose: 240.0 mg/kg/injection, schedule: Q01DX005 (ip), vehicle: saline) was 100 % of control.

With O=C(N=Nc1ccccc1)NC1CCCCC1 the T/C [1] was 100 % of control, the T/C [2] was 101 % of control and the T/C [3] was 100 % of control.

With CC(=O)N/C(=C/c1ccccc1)C(=O)N/C(=C/c1ccccc1)C(=O)O the T/C [4] was 101 % of control, the T/C [5] was 99 % of control and the T/C (dose: 200.0 mg/kg/injection, schedule: Q01DX005 (ip), vehicle: Klucel (hydroxypropylcellulose) (HPC)) was 91 % of control.

In the case of CCOC(=O)C1=C(C(=O)c2ccccc2)C(c2ccc(Cl)cc2Cl)C(C(=O)c2ccccc2)=C(C(=O)OCC)N1, the T/C [6] is reported as 93 % of control and the T/C [7] is reported as 90 % of control.

Cc1cc(Cl)ccc1-n1nc(C)c2c(N)nc(N)nc21 was tested, and the T/C (dose: 100.0 mg/kg/injection, schedule: Q04DX003 (ip), vehicle: Klucel (hydroxypropylcellulose) (HPC)) was 109 % of control and the T/C (dose: 200.0 mg/kg/injection, schedule: Q04DX003 (ip), vehicle: Klucel (hydroxypropylcellulose) (HPC)) was 102 % of control.

With Cc1ccc(NC(=O)CCCC(=O)C(C#N)c2ccccc2C)cc1C (configuration not stated) the T/C [6] was 113 % of control, the T/C [7] was 103 % of control and the T/C [8] was 102 % of control.

With O=C1Nc2ccc(Br)cc2/C1=C/C(=O)c1ccccc1 the T/C [9] was 111 % of control, the T/C [10] was 101 % of control and the T/C [11] was 103 % of control.

COc1cc(C(c2cc3c(cc2O)OCO3)N2CCCCC2)cc(OC)c1OC (configuration not stated) was tested, and the T/C [6] was 111 % of control and 118 % of control and 123 % of control, the T/C [7] was 111 % of control and 118 % of control and the T/C [8] was 103 % of control. For the same molecule, the T/C (dose: 480.0 mg/kg/injection, schedule: Q01DX005 (ip), vehicle: saline with Tween-80) was 118 % of control.

In the case of O=C1NC(=O)N2CCCOC2C1c1ccccc1 (configuration not stated), the T/C [9] is reported as 103 % of control, the T/C [10] is reported as 99 % of control and the T/C [11] is reported as 99 % of control.

With CCCCN(CCCC)CCC(=O)c1ccc(Cl)c2ccccc12 the T/C [12] was 97 % of control and the T/C [1] was 105 % of control.

CCCCN(CCO)CC(O)Cn1cnc2c(N)ncnc21 (configuration not stated) was tested, and the T/C [13] was 94 % of control, the T/C [14] was 87 % of control and the T/C [15] was 87 % of control.

For NC(Cc1cnc[nH]1)C(=O)N1CCCC1C(=O)NC(CCC(=O)O)C(=O)O (stereo not drawn) (H-His-Pro-Glu-OH; configuration not given here), the T/C (dose: 7.5 mg/kg/injection, schedule: Q01DX009 (ip), vehicle: saline) was 102 % of control, the T/C (dose: 15.0 mg/kg/injection, schedule: Q01DX009 (ip), vehicle: saline) was 100 % of control and the T/C (dose: 30.0 mg/kg/injection, schedule: Q01DX009 (ip), vehicle: saline) was 109 % of control.

With CN1C(=O)N(C)C2(C(=O)N(C)C(=S)N2C)N(C)C1=O the T/C [6] was 95 % of control, the T/C [7] was 103 % of control and the T/C [8] was 102 % of control.

With CC(=O)NNC(=O)CCCCCCC(=O)NNC(C)=O the T/C [4] was 98 % of control and the T/C [5] was 98 % of control.

In the case of CC1(C(Cl)(Cl)Cl)C=CC(=O)C=C1, the T/C [16] is reported as 99 % of control, the T/C [17] is reported as 107 % of control and the T/C [18] is reported as 99 % of control.

With Cn1nnc2c(C(N)=O)ncn2c1=O the T/C [12] was 118 % of control, the T/C (dose: 25.0 mg/kg/injection, schedule: Q01DX005 (ip), vehicle: saline) was 119 % of control and 121 % of control and the T/C [2] was 189 % of control. The T/C [19] was 164 % of control and 217 % of control, the T/C [3] was 254 % of control and the T/C [20] was 225 % of control and 87 % of control.

O=C(O)Cn1nc([O-])[n+]2ccccc12 was tested, and the T/C [16] was 100 % of control, the T/C [17] was 94 % of control and the T/C [18] was 110 % of control.

For CN=C(C)NC1CCCCC1, the T/C [21] was 96 % of control and the T/C [22] was 96 % of control.

In the case of O=[N+]([O-])c1cc2c(cc1S(=O)(=O)O)C1C(C3C2C2(Cl)C(Cl)=C(Cl)C3(Cl)C2(Cl)Cl)C2(Cl)C(Cl)=C(Cl)C1(Cl)C2(Cl)Cl (configuration not stated), the T/C [21] is reported as 101 % of control and the T/C [22] is reported as 98 % of control.

In the case of O=C(N=c1sc2ccccc2s1)N=c1sc2ccccc2s1, the T/C (dose: 30.0 mg/kg/injection, schedule: Q01DX005 (ip), vehicle: Klucel (hydroxypropylcellulose) (HPC)) is reported as 99 % of control, the T/C [13] is reported as 86 % of control and 91 % of control and the T/C [14] is reported as 95 % of control.

For C=CCC(C)/C(=N\[N+](C)(C)C)c1ccccc1 (configuration not stated), the T/C (dose: 12.5 mg/kg/injection, schedule: Q01DX001 (ip), vehicle: saline) was 100 % of control, the T/C (dose: 25.0 mg/kg/injection, schedule: Q01DX001 (ip), vehicle: saline) was 106 % of control and the T/C (dose: 50.0 mg/kg/injection, schedule: Q01DX001 (ip), vehicle: saline) was 99 % of control.

With O=C(N1CCC(CCN2CCCC2)CC1)C(O)(c1ccccc1)c1ccccc1 the T/C (dose: 25.0 mg/kg/injection, schedule: Q04DX002 (ip), vehicle: saline) was 107 % of control, the T/C (dose: 50.0 mg/kg/injection, schedule: Q04DX002 (ip), vehicle: saline) was 107 % of control and the T/C (dose: 100.0 mg/kg/injection, schedule: Q04DX002 (ip), vehicle: saline) was 106 % of control and 97 % of control.

With COc1cc2c(cc1C(C)c1cc(C)c(OC)c(C)c1)OCO2 (configuration not stated) the T/C [1] was 100 % of control, the T/C [2] was 106 % of control and the T/C [3] was 101 % of control.

COc1ccc(C(=O)/C=C/c2ccc3cc(OC)c(OC)cc3c2)cc1OC was tested, and the T/C (dose: 3.13 mg/kg/injection, schedule: Q01DX009 (ip), vehicle: Klucel (hydroxypropylcellulose) (HPC)) was 103 % of control, the T/C (dose: 6.25 mg/kg/injection, schedule: Q01DX009 (ip), vehicle: Klucel (hydroxypropylcellulose) (HPC)) was 100 % of control and the T/C (dose: 12.5 mg/kg/injection, schedule: Q01DX009 (ip), vehicle: Klucel (hydroxypropylcellulose) (HPC)) was 106 % of control. For the same molecule, the T/C (dose: 25.0 mg/kg/injection, schedule: Q01DX009 (ip), vehicle: Klucel (hydroxypropylcellulose) (HPC)) was 106 % of control and the T/C [9] was 98 % of control.

O=C1OCCOCCOCCOC(=O)c2ccccc2SSc2ccccc21 was tested, and the T/C (dose: 100.0 mg/kg/injection, schedule: Q01DX001 (ip), vehicle: saline with Tween-80) was 90 % of control and the T/C (dose: 200.0 mg/kg/injection, schedule: Q01DX001 (ip), vehicle: saline with Tween-80) was 97 % of control.

For CCC1(c2ccccc2)C(=O)NC(=O)N(CN2CCOCC2)C1=O (configuration not stated), the T/C [13] was 100 % of control, the T/C [14] was 100 % of control and the T/C [15] was 98 % of control.

For CC(C)(C)C(=O)Oc1c2ccccc2cc2ccccc12, the T/C (dose: 30.0 mg/kg/injection, schedule: Q01DX005 (ip), vehicle: saline with Tween-80) was 88 % of control, the T/C [6] was 88 % of control and 89 % of control and the T/C [7] was 86 % of control.

CC(C)=CC(=O)C1=C(O)C(=O)OC1 was tested, and the T/C [16] was 109 % of control, the T/C [17] was 108 % of control and the T/C [18] was 107 % of control.

With O=C1CCCCCCCCCC/C1=N/O the T/C [16] was 99 % of control, the T/C [17] was 89 % of control and the T/C [18] was 96 % of control.

For COc1cc2c(cc1OC)C(Cc1ccccc1)=NCC2, the T/C (dose: 25.0 mg/kg/injection, schedule: Q01DX009 (ip), vehicle: saline with Tween-80) was 100 % of control, the T/C [16] was 95 % of control and the T/C [17] was 90 % of control.

For CN(C)CCN1C(=O)C2C3CCC(C)(O3)C2C1=O (configuration not stated), the T/C [23] was 99 % of control, the T/C [19] was 104 % of control and the T/C [20] was 103 % of control.

O=C1CCCCC=C1Cl was tested, and the T/C [21] was 96 % of control, the T/C [22] was 98 % of control and the T/C (dose: 200.0 mg/kg/injection, schedule: Q01DX009 (ip), vehicle: saline) was 108 % of control.

CN(C)CCN(C=O)CCN(C)C was tested, and the T/C [23] was 95 % of control, the T/C [19] was 88 % of control and the T/C [20] was 101 % of control.
